Legend:
[1] = tested on: beet armyworm (BAW; Spodoptera exigua: Lepidoptera); experiment: 128-well diet tray assay on beet armyworm (BAW 50); assay type: in vivo; details: 128-well diet tray assay; 50 μg/cm^2 of test compound on diet; second instar BAW larvae; mortality class
Procedure, shortened: (§1)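 In the HTS format, eggs were placed on diet surface-treated with 12 μg compound per well, held dark at 29° C, and scored for mortality at 6 d (mean of six replicates). The tray format used three to five second instar larvae on diet treated at 50 μg/cm^2, 25° C, 14:10 light-dark, six days, averaged over eight wells.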

[2] = tested on: beet armyworm (BAW; Spodoptera exigua: Lepidoptera); experiment: 96-well microtiter plate-based high throughput (HTS) diet bioassay on beet armyworm (BAW HTS); assay type: in vivo; details: BAW eggs, 12 μg test compound per well, mortality at 6 d post-treatment, mortality class
Procedure, shortened: as §1

[3] = 96-well microtiter plate HTS diet assay

SMILES | BAW 50 ug/cm2 [1] | BAW HTS ([2]; 96-well HTS diet assay) | BAW HTS [2, 3] | BAW HTS ([2]; 96-well HTS diet bioassay)
COC1C(C)OC(ON=C(C)c2cccc(-c3cn(-c4ccc(OC(F)(F)F)cc4)cn3)c2)C(OC)C1OC (stereo not drawn) [Compound 166] | A (the compound was tested and at least 50 percent mortality was observed) | B (either (1) the compound was tested and less than 50 percent mortality was observed or (2) the compound was not tested) | B (either (1) the compound was tested and less than 50 percent mortality was observed or (2) the compound was not tested) | 
CCOC1C(OC)C(C)OC(ON=Cc2ccc(-c3ncc(-c4ccc(F)cc4)cn3)cc2)C1OC (stereo not drawn) [Compound 153] | A (the compound was tested and at least 50 percent mortality was observed) | B (either (1) the compound was tested and less than 50 percent mortality was observed or (2) the compound was not tested) | B (either (1) the compound was tested and less than 50 percent mortality was observed or (2) the compound was not tested) | 
CCO[C@@H]1[C@@H](OC)[C@H](C)O[C@@H](OC(=O)Nc2ccc(-c3nc(CC(C)C)n(-c4ccc(OC(F)(F)F)cc4)n3)cc2)[C@@H]1OC [Compound 219] | A (the compound was tested and at least 50 percent mortality was observed) | B (either (1) the compound was tested and less than 50 percent mortality was observed or (2) the compound was not tested) | B (either (1) the compound was tested and less than 50 percent mortality was observed or (2) the compound was not tested) | 
CCOC1C(OC)C(C)OC(ON=Cc2ccc(-c3ncc(-c4ccc(SC)cc4)cn3)cc2)C1OC (stereo not drawn) [Compound 163] | B (either (1) the compound was tested and less than 50 percent mortality was observed or (2) the compound was not tested) | B (either (1) the compound was tested and less than 50 percent mortality was observed or (2) the compound was not tested) | B (either (1) the compound was tested and less than 50 percent mortality was observed or (2) the compound was not tested) | 
COC1C(C)OC(ON=Cc2ccc(-c3cn(-c4ccc(C(C)(C)C)cc4)cn3)cc2)C(OC)C1OC (stereo not drawn) [Compound 48] | A (the compound was tested and at least 50 percent mortality was observed) |  | B (either (1) the compound was tested and less than 50 percent mortality was observed or (2) the compound was not tested) | B (either (1) the compound was tested and less than 50 percent mortality was observed or (2) the compound was not tested)
CCOC1C(OC)C(C)OC(ON=Cc2ccc(-c3ncn(-c4ccc([N+](=O)[O-])cc4)n3)cc2)C1OC (stereo not drawn) [Compound 127] | A (the compound was tested and at least 50 percent mortality was observed) |  | B (either (1) the compound was tested and less than 50 percent mortality was observed or (2) the compound was not tested) | B (either (1) the compound was tested and less than 50 percent mortality was observed or (2) the compound was not tested)
C=CCO[C@@H]1[C@@H](OC)[C@H](C)O[C@@H](OC(=O)Nc2ccc(-c3ncn(-c4ccc(OC(F)(F)F)cc4)n3)cc2)[C@@H]1OC [Compound 205] | A (the compound was tested and at least 50 percent mortality was observed) | A (the compound was tested and at least 50 percent mortality was observed) | A (the compound was tested and at least 50 percent mortality was observed) | 
COC1C(C)OC(ON=Cc2ccc(-c3cn(-c4ccc(I)cc4)cn3)cc2)C(OC)C1OC (stereo not drawn) [Compound 47] | A (the compound was tested and at least 50 percent mortality was observed) |  | B (either (1) the compound was tested and less than 50 percent mortality was observed or (2) the compound was not tested) | B (either (1) the compound was tested and less than 50 percent mortality was observed or (2) the compound was not tested)
CO[C@@H]1[C@@H](OC)[C@H](C)O[C@@H](OC(=O)Nc2ccc(-c3cn(-c4ccc(OC(F)(F)F)cc4)cn3)cc2)[C@@H]1OC [Compound 173] | A (the compound was tested and at least 50 percent mortality was observed) | A (the compound was tested and at least 50 percent mortality was observed) | A (the compound was tested and at least 50 percent mortality was observed) | 
COC1C(C)OC(ON=Cc2ccc(-n3cnc(-c4ccc(C(F)(F)F)cc4)c3)cc2)C(OC)C1OC (stereo not drawn) [Compound 57] | A (the compound was tested and at least 50 percent mortality was observed) |  | A (the compound was tested and at least 50 percent mortality was observed) | A (the compound was tested and at least 50 percent mortality was observed)
COC1C(C)OC(ON=Cc2c(F)ccc(-c3cn(-c4ccc(OC(F)(F)F)cc4)cn3)c2F)C(OC)C1OC (stereo not drawn) [Compound 21] | B (either (1) the compound was tested and less than 50 percent mortality was observed or (2) the compound was not tested) |  | A (the compound was tested and at least 50 percent mortality was observed) | A (the compound was tested and at least 50 percent mortality was observed)
COC1C(C)OC(ON=Cc2ccc(-c3cn(-c4ccc(C)cc4)nn3)cc2)C(OC)C1OC (stereo not drawn) [Compound 76] | B (either (1) the compound was tested and less than 50 percent mortality was observed or (2) the compound was not tested) |  | B (either (1) the compound was tested and less than 50 percent mortality was observed or (2) the compound was not tested) | B (either (1) the compound was tested and less than 50 percent mortality was observed or (2) the compound was not tested)
CCO[C@@H]1[C@@H](OC)[C@H](C)O[C@@H](OC(=O)Nc2ccc(N3CCN(c4ccc(OC(F)(F)F)cc4)CC3)cc2)[C@@H]1OC [Compound 241] | B (either (1) the compound was tested and less than 50 percent mortality was observed or (2) the compound was not tested) | B (either (1) the compound was tested and less than 50 percent mortality was observed or (2) the compound was not tested) | B (either (1) the compound was tested and less than 50 percent mortality was observed or (2) the compound was not tested) | 
CCOC1C(OC)C(C)OC(ON=Cc2ccc(-c3ncc(-c4ccccc4OC(F)(F)F)cn3)cc2)C1OC (stereo not drawn) [Compound 156] | A (the compound was tested and at least 50 percent mortality was observed) | B (either (1) the compound was tested and less than 50 percent mortality was observed or (2) the compound was not tested) | B (either (1) the compound was tested and less than 50 percent mortality was observed or (2) the compound was not tested) | 
CCO[C@@H]1[C@@H](OC)[C@H](C)O[C@@H](OC(=O)Nc2ccc(-c3ccc(-c4ccc(OC(F)(F)F)cc4)nn3)cc2)[C@@H]1OC [Compound 248] | B (either (1) the compound was tested and less than 50 percent mortality was observed or (2) the compound was not tested) | B (either (1) the compound was tested and less than 50 percent mortality was observed or (2) the compound was not tested) | B (either (1) the compound was tested and less than 50 percent mortality was observed or (2) the compound was not tested) | 
COC1C(C)OC(ON=Cc2ccc(-c3cn(-c4ccc(OC(F)(F)F)cc4)cn3)cc2F)C(OC)C1OC (stereo not drawn) [Compound 36] | A (the compound was tested and at least 50 percent mortality was observed) |  | B (either (1) the compound was tested and less than 50 percent mortality was observed or (2) the compound was not tested) | B (either (1) the compound was tested and less than 50 percent mortality was observed or (2) the compound was not tested)
COC1C(C)OC(ON=Cc2ccc(-c3ccn(-c4ccc(C(C)C)cc4)n3)cc2)C(OC)C1OC (stereo not drawn) [Compound 10] | A (the compound was tested and at least 50 percent mortality was observed) |  | B (either (1) the compound was tested and less than 50 percent mortality was observed or (2) the compound was not tested) | B (either (1) the compound was tested and less than 50 percent mortality was observed or (2) the compound was not tested)
COC1C(C)OC(ON=Cc2ccc(-c3cn(-c4ccc(OC(F)(F)F)cc4)nn3)cc2)C(OC)C1OC (stereo not drawn) [Compound 79] | A (the compound was tested and at least 50 percent mortality was observed) |  | B (either (1) the compound was tested and less than 50 percent mortality was observed or (2) the compound was not tested) | B (either (1) the compound was tested and less than 50 percent mortality was observed or (2) the compound was not tested)
CO[C@@H]1[C@@H](OC)[C@H](C)O[C@@H](OC(=O)Nc2ccc(-c3cc(C(F)(F)F)nc(-c4ccc(C(F)(F)F)cc4)n3)cc2)[C@@H]1OC [Compound 235] | B (either (1) the compound was tested and less than 50 percent mortality was observed or (2) the compound was not tested) | A (the compound was tested and at least 50 percent mortality was observed) | A (the compound was tested and at least 50 percent mortality was observed) | 
CCO[C@@H]1[C@@H](OC)[C@H](C)O[C@@H](OC(=O)Nc2ccc(C3=NOC(c4ccc(C(F)(F)F)cc4)C3)cc2)[C@@H]1OC (stereo partly drawn) [Compound 181] | A (the compound was tested and at least 50 percent mortality was observed) | A (the compound was tested and at least 50 percent mortality was observed) | A (the compound was tested and at least 50 percent mortality was observed) | 
COC1C(C)OC(ON=Cc2ccc(-c3ncnc(-c4ccc(OC(F)(F)F)cc4)n3)cc2)C(OC)C1OC (stereo not drawn) [Compound 158] | A (the compound was tested and at least 50 percent mortality was observed) | A (the compound was tested and at least 50 percent mortality was observed) | A (the compound was tested and at least 50 percent mortality was observed) | 

Reference: patent publication US8178658B2 (Dow AgroSciences, LLC, priority 2008, dated 2012)
